# From US20190134000A1, “COMPOUNDS TO PROMOTE NORMAL PROCESSING OF APP” (Buck Institute for Research on Aging, priority 2016, published 2019)
# pIC50, pKd: −log10 of the molar value. “Also recorded” adds a separate entry of the source. Read-outs that look alike come from different tables or passages of the source.
# Legend:
# CYP1A2 = target: T1, CYP1A2 (Homo sapiens, UniProt P05177); assay: CYP inhibition screen CYP1A2; assay type: in vitro ADME
# T1 sequence (P05177 1-516): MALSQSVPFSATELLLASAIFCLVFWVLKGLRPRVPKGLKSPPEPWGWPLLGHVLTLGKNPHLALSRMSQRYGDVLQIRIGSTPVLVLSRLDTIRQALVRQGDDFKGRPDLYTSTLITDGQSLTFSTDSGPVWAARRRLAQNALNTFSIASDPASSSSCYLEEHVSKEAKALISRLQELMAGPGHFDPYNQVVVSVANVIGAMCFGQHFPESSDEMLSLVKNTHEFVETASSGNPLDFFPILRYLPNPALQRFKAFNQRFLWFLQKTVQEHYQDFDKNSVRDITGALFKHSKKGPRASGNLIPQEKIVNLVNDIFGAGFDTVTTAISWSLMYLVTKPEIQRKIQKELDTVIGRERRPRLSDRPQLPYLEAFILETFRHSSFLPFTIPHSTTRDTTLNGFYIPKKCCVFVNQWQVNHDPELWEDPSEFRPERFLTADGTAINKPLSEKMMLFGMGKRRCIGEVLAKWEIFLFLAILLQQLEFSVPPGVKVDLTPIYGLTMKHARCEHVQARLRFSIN
# sAPPα in SH-SY5Y cells = assay: Primary screen, effect on sAPPα in SH-SY5Y cells (AlphaLISA); assay type: cell-based, human; details: ↑ increase
# Text: Compound C41 was initially identified by screening a library of compounds in a series of steps. First compounds were screened in a primary screen to determine the effect on sAPPα in SH-SYSY cells (see, e.g., FIG. 4). Compounds that elicited an increase in sAPPα of at least 10% were subjected to a secondary screen in CHO-7W cells for their effect on sAPPα and Aβ (see, e.g., FIG. 5).
# S9 stability, monkey = assay type: in vitro ADME
# S9 stability, human = assay type: in vitro ADME
# [1] = Panel binding test (Cerep broad screening panel)
# in vitro = assay: in vitro
# Procedure: The second batch of C41 was tested for plasma protein binding, ADME-tox screening (microsomal intrinsic clearance), and ADME-tox screening (CYP inhibition screen). PK in rats was determined to determine a dose of non-GLP Pharm-Tox screening. Additionally, acute toxicity in rats (pre-subchronic toxicity) and non-GLP subchronic toxicity was determined.
# AD mouse model = assay: Synaptic load, synaptophysin labeling of hippocampus; assay type: in vivo
# Procedure: FIG. 16 illustrates mechanistic confirmation studies for determination of synaptic load.
# Mechanistic confirmation studies for determination of synaptic load were performed using antibody-labeling of synaptophysin with a green fluorescent tag. […] The improvements in NLR and NOR may be correlated to the restoration of synaptic load, increases in sAPPα or the sAPPα/sAPPβ ratio; increases in the sAPPα/Aβ1-42 ratio; decreases in the p-tau/tau ratio, and/or decreases in APPneo (c-terminal cleavage).
# CYP2C19 = CYP2C19 (Homo sapiens, UniProt P33261); assay: CYP inhibition screen CYP2C19; assay type: in vitro ADME
# S9 stability, guinea pig = assay type: in vitro ADME
# hERG receptor = hERG receptor (Homo sapiens, UniProt Q12809); assay type: binding
# CYP2D6 = CYP2D6 (Homo sapiens, UniProt P10635); assay: CYP inhibition screen CYP2D6; assay type: in vitro ADME
# S9 stability, rat = assay type: in vitro ADME
# AD model mice = assay: Oral efficacy studies in mice; assay type: in vivo
# Text: Thus, C41 was identified as a good new chemical entity (NCE) based on the testing. In particular C41 in vitro and in vivo profile met the advancement criteria in SH-SYSY and CHO-7W in vitro screens.
# 5-HT3 = target: T2, 5-HT3 (Homo sapiens, UniProt P46098); assay: Target binding 5-HT3
# T2 sequence (P46098 24-478): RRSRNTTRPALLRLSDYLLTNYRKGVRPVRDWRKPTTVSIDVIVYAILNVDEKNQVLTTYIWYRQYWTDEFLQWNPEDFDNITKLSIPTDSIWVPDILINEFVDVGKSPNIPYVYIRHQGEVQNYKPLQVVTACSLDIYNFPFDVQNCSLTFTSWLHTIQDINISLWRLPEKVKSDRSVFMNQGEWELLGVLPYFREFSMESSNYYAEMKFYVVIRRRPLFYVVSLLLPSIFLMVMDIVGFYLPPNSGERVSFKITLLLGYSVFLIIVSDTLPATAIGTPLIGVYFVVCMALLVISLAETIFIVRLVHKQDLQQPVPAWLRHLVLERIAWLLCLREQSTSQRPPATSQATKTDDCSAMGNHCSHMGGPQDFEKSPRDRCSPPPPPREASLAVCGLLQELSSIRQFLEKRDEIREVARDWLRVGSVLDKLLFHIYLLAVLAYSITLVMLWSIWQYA
# Chain of CYP2D6 (P10635 whole entry): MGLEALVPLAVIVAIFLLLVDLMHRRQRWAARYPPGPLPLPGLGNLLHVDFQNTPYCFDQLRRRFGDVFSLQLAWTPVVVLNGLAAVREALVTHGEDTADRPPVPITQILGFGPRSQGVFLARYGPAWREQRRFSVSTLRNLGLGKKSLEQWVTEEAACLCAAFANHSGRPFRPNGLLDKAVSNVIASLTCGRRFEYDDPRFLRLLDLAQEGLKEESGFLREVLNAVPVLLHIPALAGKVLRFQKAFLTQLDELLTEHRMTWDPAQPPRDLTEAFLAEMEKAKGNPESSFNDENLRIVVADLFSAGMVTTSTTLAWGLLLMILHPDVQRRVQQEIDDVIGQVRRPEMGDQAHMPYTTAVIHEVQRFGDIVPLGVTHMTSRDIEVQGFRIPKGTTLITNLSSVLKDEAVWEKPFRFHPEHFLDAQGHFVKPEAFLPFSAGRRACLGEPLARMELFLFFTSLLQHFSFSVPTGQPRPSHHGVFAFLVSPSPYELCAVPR
# Chain of CYP2C19 (P33261 whole entry): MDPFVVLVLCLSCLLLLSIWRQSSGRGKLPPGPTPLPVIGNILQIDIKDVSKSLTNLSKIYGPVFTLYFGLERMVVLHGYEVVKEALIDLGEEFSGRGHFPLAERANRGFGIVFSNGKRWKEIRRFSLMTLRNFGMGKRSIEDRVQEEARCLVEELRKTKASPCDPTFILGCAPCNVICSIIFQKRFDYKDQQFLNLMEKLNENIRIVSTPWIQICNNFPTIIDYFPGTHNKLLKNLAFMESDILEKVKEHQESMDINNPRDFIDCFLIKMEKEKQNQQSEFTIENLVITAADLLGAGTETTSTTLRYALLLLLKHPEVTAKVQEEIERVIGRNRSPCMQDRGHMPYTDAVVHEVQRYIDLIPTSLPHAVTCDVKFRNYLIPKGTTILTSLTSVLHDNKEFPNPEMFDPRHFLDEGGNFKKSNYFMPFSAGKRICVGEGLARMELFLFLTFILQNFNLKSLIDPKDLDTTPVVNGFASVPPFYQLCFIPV
# Chain of hERG receptor (Q12809 whole entry): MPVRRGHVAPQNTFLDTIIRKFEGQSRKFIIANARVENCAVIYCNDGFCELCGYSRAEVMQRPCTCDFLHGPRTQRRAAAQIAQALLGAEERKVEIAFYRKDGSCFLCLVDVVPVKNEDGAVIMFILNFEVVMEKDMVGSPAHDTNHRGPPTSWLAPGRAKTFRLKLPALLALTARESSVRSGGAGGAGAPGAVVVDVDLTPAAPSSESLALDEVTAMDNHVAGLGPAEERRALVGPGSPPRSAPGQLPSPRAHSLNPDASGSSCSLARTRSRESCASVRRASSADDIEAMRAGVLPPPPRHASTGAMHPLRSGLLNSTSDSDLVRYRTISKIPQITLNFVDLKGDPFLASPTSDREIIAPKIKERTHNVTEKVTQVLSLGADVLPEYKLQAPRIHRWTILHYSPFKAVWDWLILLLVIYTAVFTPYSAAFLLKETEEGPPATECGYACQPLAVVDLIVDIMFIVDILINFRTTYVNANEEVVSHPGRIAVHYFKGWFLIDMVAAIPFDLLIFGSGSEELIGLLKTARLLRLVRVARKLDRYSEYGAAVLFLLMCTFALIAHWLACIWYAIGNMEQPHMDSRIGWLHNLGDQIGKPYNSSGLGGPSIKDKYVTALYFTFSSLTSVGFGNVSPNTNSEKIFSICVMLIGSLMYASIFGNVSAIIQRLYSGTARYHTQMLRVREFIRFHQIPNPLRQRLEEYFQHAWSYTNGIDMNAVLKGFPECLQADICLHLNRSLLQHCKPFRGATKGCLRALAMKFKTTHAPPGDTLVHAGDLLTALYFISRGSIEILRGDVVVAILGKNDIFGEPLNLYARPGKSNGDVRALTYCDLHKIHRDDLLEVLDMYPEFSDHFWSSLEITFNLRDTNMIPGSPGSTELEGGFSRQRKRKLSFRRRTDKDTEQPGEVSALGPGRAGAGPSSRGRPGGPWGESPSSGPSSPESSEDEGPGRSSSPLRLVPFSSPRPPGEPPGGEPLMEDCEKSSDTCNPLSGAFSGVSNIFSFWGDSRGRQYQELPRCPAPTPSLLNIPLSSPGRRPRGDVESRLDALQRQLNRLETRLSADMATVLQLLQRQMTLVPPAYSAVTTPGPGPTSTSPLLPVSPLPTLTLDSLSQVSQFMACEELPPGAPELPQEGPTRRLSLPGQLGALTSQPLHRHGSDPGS
smiles,measurement,setting,value
"CN1[C@@H]2CC[C@H]1C[C@@H](OC(=O)c1c[nH]c3cc(F)ccc13)C2 [Compound C41, (1R,3R,5S)-8-methyl-8-azabicyclo[3.2.1]octan-3-yl 6-fluoro-1H-indole-3-carboxylate]",pIC50,CYP1A2,< 4.52
same,inhibition at 10 µM,CYP1A2; human,0.35%
same,inhibition at 30 µM,CYP1A2; human,0.33%
same,Primary Screen (SH-SY5Y) sAPPα,sAPPα in SH-SY5Y cells,↑~20%
same,Metabolic Half-Life Monkey S9,"S9 stability, monkey",>60 min
same,half-life,"S9 stability, monkey",> 60 min
same,Metabolic Half-Life Human S9,"S9 stability, human",>60 min
same,half-life,"S9 stability, human",> 60 min
same,profile in panel binding test / activity in broad screening panel,[1],clean profile; also recorded: Overall clean
same,microsomal CLint at 1 μM,"in vitro; dog, microsomes, NADPH-Dependent CLint",45.7 µL/min/mg
same,half-life at 1 μM,"in vitro; dog, microsomes, NADPH-Dependent T1/2",50.6 min
same,microsomal CLint at 1 μM,"in vitro; dog, microsomes, NADPH-Free CLint",< 9.6 µL/min/mg
same,half-life at 1 μM,"in vitro; dog, microsomes, NADPH-Free T1/2",> 240 min
same,Plasma protein binding,in vitro; human,74.3 (human)
same,recovery,in vitro; human,115%
same,half-life,"in vitro; human, microsomes",> 240 min
same,half-life at 1 μM,"in vitro; human, microsomes",> 240 min
same,microsomal CLint at 1 μM,"in vitro; human, microsomes",< 9.6 µL/min/mg
same,NADPH-Free CLint,"in vitro; human, microsomes, 1 μM",<9.6 µL/min/mg
same,NADPH-Free T1/2,"in vitro; human, microsomes, 1 μM",>240 min
same,Mean Plasma Fraction Bound,"in vitro; human, plasma",74.3%
same,fraction unbound,"in vitro; human, plasma",0.257
same,microsomal CLint at 1 μM,"in vitro; rat, microsomes, NADPH-Dependent CLint",187 µL/min/mg
same,half-life at 1 μM,"in vitro; rat, microsomes, NADPH-Dependent T1/2",12.4 min
same,microsomal CLint at 1 μM,"in vitro; rat, microsomes, NADPH-Free CLint",< 9.6 µL/min/mg
same,half-life at 1 μM,"in vitro; rat, microsomes, NADPH-Free T1/2",> 240 min
same,synaptic load / synaptic density in hippocampus,AD mouse model,restore synaptic density; also recorded: restored synaptic load
same,pIC50,CYP2C19,< 4.52
same,inhibition at 10 µM,CYP2C19; human,0%
same,inhibition at 30 µM,CYP2C19; human,0%
same,Metabolic Half-Life Guinea Pig S9,"S9 stability, guinea pig",>60 min
same,half-life,"S9 stability, guinea pig",> 60 min
same,binding to hERG receptor,hERG receptor,no binding
same,pIC50,CYP2D6,< 4.52
same,inhibition at 10 µM,CYP2D6; human,19.9%
same,inhibition at 30 µM,CYP2D6; human,36.1%
same,half-life,"S9 stability, rat",21.8 min
same,efficacy in dose-response studies,AD model mice; mice,Efficacy was seen
same,efficacy in 4-week standard oral study,"AD model mice; mice, oral, 4 weeks",Efficacy was seen
same,efficacy in 12-week study,AD model mice; old AD model mice with advanced pathology,efficacy was seen
same,solubility,physchem,80 mM
same,solubility,physchem; water,85 mM
same,pKd,5-HT3,~8.52
same,Target 5-HT3,5-HT3; target binding,5 nM
